Drawing on US20230293517A1, “ANTAGONIST COMPOUNDS” (AdoRx Therapeutics Limited, priority 2020, published 2023), this text covers Ki for 16 compounds.

The target of assay [1] is human Adenosine A2b receptor (Homo sapiens (Human), UniProt P29275). Put plainly: Adenosine receptor TR-FRET binding assay (A2b). The note with it: TR-FRET, inhibition of binding of 30 nM CA200645, CHO cell membranes. Put shortly: (§1)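 CHO cell membranes carrying terbium-tagged human A1, A2a, A2b or A3 receptors were incubated 2 h at room temperature with compound and CA200645 tracer (A2b 30 nM; others 100 nM). Specific binding from time-resolved FRET ratios, minus 10 μM XAC background; IC50 converted to Ki (Cheng–Prusoff).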
Chain of human Adenosine A2b receptor (P29275 whole entry): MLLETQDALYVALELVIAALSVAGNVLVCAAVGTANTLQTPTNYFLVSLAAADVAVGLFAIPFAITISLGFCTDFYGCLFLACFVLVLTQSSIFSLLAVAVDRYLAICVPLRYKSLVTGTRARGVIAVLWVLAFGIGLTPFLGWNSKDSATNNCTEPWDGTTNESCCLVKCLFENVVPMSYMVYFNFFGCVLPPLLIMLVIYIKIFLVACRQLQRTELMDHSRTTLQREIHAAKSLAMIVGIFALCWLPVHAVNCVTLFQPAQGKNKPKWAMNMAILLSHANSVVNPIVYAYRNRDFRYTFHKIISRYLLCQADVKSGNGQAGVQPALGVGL
Background: TR-FRET usually uses a lanthanide donor and a delayed reading to cut background.

Assay [2] concerns the target human Adenosine A2a receptor (Homo sapiens (Human), UniProt P29274). Put plainly: Adenosine receptor TR-FRET binding assay (A2a). The note with it: inhibition of binding of 100 nM CA200645, CHO cell membranes. Put shortly:
as §1

For assay [3], the target named is human Adenosine A3 receptor (Homo sapiens (Human), UniProt P0DMS8). Put plainly: Adenosine receptor TR-FRET binding assay (A3). The note with it: inhibition of binding of 100 nM CA200645, CHO cell membranes. Put shortly: as §1
Chain of human Adenosine A3 receptor (P0DMS8 whole entry): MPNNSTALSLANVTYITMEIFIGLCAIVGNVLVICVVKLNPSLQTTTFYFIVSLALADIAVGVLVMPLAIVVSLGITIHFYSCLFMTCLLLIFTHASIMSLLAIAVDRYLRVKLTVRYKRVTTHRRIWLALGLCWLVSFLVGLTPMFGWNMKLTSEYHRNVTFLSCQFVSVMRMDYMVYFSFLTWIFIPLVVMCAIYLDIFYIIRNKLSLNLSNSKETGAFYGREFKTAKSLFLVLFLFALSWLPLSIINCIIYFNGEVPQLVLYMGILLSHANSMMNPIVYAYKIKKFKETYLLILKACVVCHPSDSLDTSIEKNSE
Assay [4] deals with human Adenosine A1 receptor (Homo sapiens (Human), UniProt P30542). Put plainly: Adenosine receptor TR-FRET binding assay (A1). The note with it: inhibition of binding of 100 nM CA200645, CHO cell membranes. An outline of the steps: as §1
Chain of human Adenosine A1 receptor (P30542 whole entry): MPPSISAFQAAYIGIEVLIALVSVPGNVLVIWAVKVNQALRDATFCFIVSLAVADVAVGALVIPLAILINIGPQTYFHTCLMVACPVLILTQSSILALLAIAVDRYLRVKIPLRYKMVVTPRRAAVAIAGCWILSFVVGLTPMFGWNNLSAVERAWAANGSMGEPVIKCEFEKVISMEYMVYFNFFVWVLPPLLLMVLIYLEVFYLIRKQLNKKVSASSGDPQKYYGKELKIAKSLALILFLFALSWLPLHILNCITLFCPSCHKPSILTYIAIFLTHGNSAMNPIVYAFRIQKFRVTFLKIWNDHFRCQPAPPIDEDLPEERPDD

Structures can show the parent of a compound that is named as a salt.

Chain of human Adenosine A2a receptor (P29274 whole entry): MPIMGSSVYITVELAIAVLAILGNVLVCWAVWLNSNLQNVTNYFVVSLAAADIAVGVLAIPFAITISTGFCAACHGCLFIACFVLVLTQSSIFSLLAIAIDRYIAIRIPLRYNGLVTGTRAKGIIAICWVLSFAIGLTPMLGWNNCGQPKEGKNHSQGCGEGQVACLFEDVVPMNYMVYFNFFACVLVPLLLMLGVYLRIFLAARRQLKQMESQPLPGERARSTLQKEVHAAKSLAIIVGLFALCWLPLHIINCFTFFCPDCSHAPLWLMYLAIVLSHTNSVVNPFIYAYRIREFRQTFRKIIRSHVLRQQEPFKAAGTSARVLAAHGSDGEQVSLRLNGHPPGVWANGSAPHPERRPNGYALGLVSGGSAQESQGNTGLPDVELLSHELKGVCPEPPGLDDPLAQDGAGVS

Broadly, the Ki is a measure of affinity in units of concentration, obtained from inhibition or displacement. Turning to `Cc1cc(-c2sc(NC(=O)N3CCC4(CCN(C)C4=O)CC3)nc2-c2cccc(C#N)c2)cc(C)n1` [Example 6.77, N-[4-(3-Cyanophenyl)-5-(2,6-dimethyl-4-pyridyl)thiazol-2-yl]-2-methyl-1-oxo-2,8-diazaspiro[4.5]decane-8-carboxamide], the Ki was determined as 0.0054 µM in assay [1], 0.00144 µM in assay [2], 0.193 µM in assay [3] and 0.133 µM in assay [4].

For `Cc1cc(-c2sc(NC(=O)N3CC[C@H]3C)nc2-c2cccc(C#N)c2)cc(C)n1` [Example 6.78, (2R)-N-[4-(3-Cyanophenyl)-5-(2,6-dimethyl-4-pyridyl)thiazol-2-yl]-2-methyl-azetidine-1-carboxamide], the inhibition constant Ki in assay [1] was 0.0009 µM; in assay [2], 0.00067 µM; in assay [3] it was 0.037 µM; in assay [4], 0.024 µM.

For `Cc1cc(-c2sc(NC(=O)N3CCC4(CCOC4)C3)nc2-c2cccc(C#N)c2)cc(C)n1` (stereo not shown) [Example 6.80, N-[4-(3-Cyanophenyl)-5-(2,6-dimethyl-4-pyridyl)thiazol-2-yl]-2-oxa-7-azaspiro[4.4]nonane-7-carboxamide], the Ki in assay [1] came to 0.0024 µM; in assay [2] it was 0.0008 µM; in assay [3], 0.45 µM; in assay [4], 0.13 µM.

In the case of `Cc1cc(-c2sc(NC(=O)N3CC[C@H]3C(C)(C)O)nc2-c2cccc(C#N)c2)cc(C)n1` [Example 6.82, (2S)-N-[4-(3-Cyanophenyl)-5-(2,6-dimethyl-4-pyridyl)thiazol-2-yl]-2-(1-hydroxy-1-methyl-ethyl)azetidine-1-carboxamide], the Ki in assay [1] was 0.0051 µM; in assay [2] it was 0.00367 µM; in assay [3], 0.246 µM; in assay [4] it was 0.116 µM.

`Cc1cc(-c2sc(NC(=O)N3CC[C@@H]3C(C)(C)O)nc2-c2cccc(C#N)c2)cc(C)n1` [Example 6.83, (2R)-N-[4-(3-Cyanophenyl)-5-(2,6-dimethyl-4-pyridyl)thiazol-2-yl]-2-(1-hydroxy-1-methyl-ethyl)azetidine-1-carboxamide]: the inhibition constant (Ki) was 0.102 µM in assay [1], 0.0676 µM in assay [2], 0.294 µM in assay [3] and 0.129 µM in assay [4].

With `Cc1cc(-c2sc(NC(=O)N3CCC(N4CCOCC4)C3)nc2-c2cccc(C#N)c2)cc(C)n1` (stereo not shown) [Example 6.84, N-[4-(3-Cyanophenyl)-5-(2,6-dimethyl-4-pyridyl)thiazol-2-yl]-3-morpholino-pyrrolidine-1-carboxamide hemi formate salt], the Ki in assay [1] turned out to be 0.0084 µM; in assay [2] it was 0.00446 µM; in assay [3], 0.568 µM; in assay [4], 0.216 µM.

For `Cc1cc(-c2sc(NC(=O)N3CC(=O)N[C@H](C)C3)nc2-c2cccc(C#N)c2)cc(C)n1` [Example 6.85, (3R)-N-[4-(3-Cyanophenyl)-5-(2,6-dimethyl-4-pyridyl)thiazol-2-yl]-3-methyl-5-oxo-piperazine-1-carboxamide], the inhibition constant Ki in assay [1] was determined as 0.016 µM; in assay [2] it was 0.0121 µM; in assay [3] it was 0.216 µM; in assay [4], 0.044 µM.

In the case of `Cc1cc(-c2sc(NC(=O)N3CCOC[C@@H]3C)nc2-c2cccc(C#N)c2)cc(C)n1` [Example 6.86, (3S)-N-[4-(3-Cyanophenyl)-5-(2,6-dimethyl-4-pyridyl)thiazol-2-yl]-3-methyl-morpholine-4-carboxamide], the inhibition constant (Ki) in assay [1] came out at 0.0019 µM; in assay [2], 0.00068 µM; in assay [3], 0.181 µM; in assay [4] it was 0.002 µM.

Turning to `Cc1cc(-c2sc(NC(=O)N3CCC34COC4)nc2-c2cccc(C#N)c2)cc(C)n1` [Example 6.87, N-[4-(3-Cyanophenyl)-5-(2,6-dimethyl-4-pyridyl)thiazol-2-yl]-6-oxa-1-azaspiro[3.3]heptane-1-carboxamide], the Ki is 0.0067 µM in assay [1], 0.00175 µM in assay [2], 0.037 µM in assay [3] and 0.057 µM in assay [4].

Take `Cc1cc(-c2sc(NC(=O)N3CCC4(CC3)CN(C)C(=O)N4C)nc2-c2cccc(C#N)c2)cc(C)n1` [Example 6.89, N-[4-(3-Cyanophenyl)-5-(2,6-dimethyl-4-pyridyl)thiazol-2-yl]-1,3-dimethyl-2-oxo-1,3,8-triazaspiro[4.5]decane-8-carboxamide]: the Ki in assay [1] was determined as 0.0035 µM; in assay [2], 0.00101 µM; in assay [3] it was 0.3 µM; in assay [4], 0.326 µM.

On to `Cc1cc(-c2sc(NC(=O)N3CC(=O)N[C@@H](C)C3)nc2-c2cccc(C#N)c2)cc(C)n1` [Example 6.90, (3S)-N-[4-(3-Cyanophenyl)-5-(2,6-dimethyl-4-pyridyl)thiazol-2-yl]-3-methyl-5-oxo-piperazine-1-carboxamide], for which the Ki in assay [1] came out at 0.0107 µM; in assay [2] it was 0.00316 µM; in assay [3] it was 0.106 µM; in assay [4], 0.063 µM.

As for `Cc1cc(-c2sc(NC(=O)N3CCC(S(C)(=O)=O)CC3)nc2-c2cccc(C#N)c2)cc(C)n1` [Example 6.95, N-[4-(3-Cyanophenyl)-5-(2,6-dimethyl-4-pyridyl)thiazol-2-yl]-4-methylsulfonyl-piperidine-1-carboxamide], the Ki in assay [1] turned out to be 0.0046 µM; in assay [2], 0.00105 µM; in assay [3] it was 0.56 µM; in assay [4], 0.029 µM.

For the compound `CC(=O)N1C[C@H]2C[C@@H]1CN2C(=O)Nc1nc(-c2cccc(C#N)c2)c(-c2cc(C)nc(C)c2)s1` [Example 6.101, (1R,4R)-5-Acetyl-N-[4-(3-cyanophenyl)-5-(2,6-dimethyl-4-pyridyl)thiazol-2-yl]-2,5-diazabicyclo[2.2.1]heptane-2-carboxamide], the Ki in assay [1] was determined as 0.003 µM; in assay [2], 0.0011 µM; in assay [3], 0.853 µM; in assay [4], 0.03 µM.

In the case of `Cc1cc(-c2sc(NC(=O)N3C[C@@H]4C[C@H]3CN4C)nc2-c2cccc(C#N)c2)cc(C)n1` [Example 6.102, (1S,4S)-N-[4-(3-Cyanophenyl)-5-(2,6-dimethyl-4-pyridyl)thiazol-2-yl]-5-methyl-2,5-diazabicyclo[2.2.1]heptane-2-carboxamide], the Ki in assay [1] is 0.0105 µM; in assay [2], 0.00742 µM; in assay [3], 0.195 µM; in assay [4], 0.064 µM.

In the case of `Cc1cc(-c2sc(NC(=O)N3CCC4(CC3)CN(C)C(=O)N4)nc2-c2cccc(C#N)c2)cc(C)n1` [Example 6.103, N-[4-(3-Cyanophenyl)-5-(2,6-dimethyl-4-pyridyl)thiazol-2-yl]-3-methyl-2-oxo-1,3,8-triazaspiro[4.5]decane-8-carboxamide], the Ki in assay [1] is 0.0017 µM; in assay [2], 0.00068 µM; in assay [3] it was 0.475 µM; in assay [4], 0.061 µM.

Take `Cc1cc(-c2sc(NC(=O)N3CCC4(CN(C)CCO4)C3)nc2-c2cccc(C#N)c2)cc(C(F)F)n1` (stereo not shown) [Example 6.107, N-[4-(3-Cyanophenyl)-5-[2-(difluoromethyl)-6-methyl-4-pyridyl]thiazol-2-yl]-9-methyl-6-oxa-2,9-diazaspiro[4.5]decane-2-carboxamide]: the inhibitory constant (Ki) in assay [1] is 0.0023 µM; in assay [2], 0.00137 µM; in assay [3] it was 0.156 µM; in assay [4], 0.069 µM.
